Results on 30 compounds are retold here after US8846698B2, “Pyrrolo[2,3-d]pyrimidine tropomysin-related kinase inhibitors” (Pfizer Limited, priority 2011, dated 2014).

SMILES strings stand for the structures. Counter-ions that a name gives are not always drawn.

In the test the target is TRKA (Homo sapiens (Human), UniProt P04629). Briefly: Isolated TRK enzyme assay (HTRF KinEASE-TK), TRKA. It counts as biochemical. As to conditions: read-out: Trka enzyme (IC50).
Chain of TRKA (P04629 441-796): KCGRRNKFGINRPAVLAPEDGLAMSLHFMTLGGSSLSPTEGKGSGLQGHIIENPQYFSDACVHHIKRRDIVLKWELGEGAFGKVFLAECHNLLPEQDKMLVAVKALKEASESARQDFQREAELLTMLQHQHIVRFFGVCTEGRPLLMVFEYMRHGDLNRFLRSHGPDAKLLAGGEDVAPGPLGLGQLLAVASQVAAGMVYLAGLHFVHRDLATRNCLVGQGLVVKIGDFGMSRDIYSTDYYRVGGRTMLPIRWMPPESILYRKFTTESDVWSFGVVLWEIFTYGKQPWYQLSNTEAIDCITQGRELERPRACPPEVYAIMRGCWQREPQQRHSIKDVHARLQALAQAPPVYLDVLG
For the compound `CC(CO)(CO)n1cc(C(=O)c2cncc(NC(=O)Cc3ccc(F)c(C(F)(F)F)c3)c2)c2cncnc21` [Example 263, N-(5-(7-(1,3-dihydroxy-2-methylpropan-2-yl)-7H-pyrrolo[2,3-d]pyrimidine-5-carbonyl)pyridin-3-yl)-2-(4-fluoro-3-(trifluoromethyl)phenyl)acetamide], the half-maximal inhibitory concentration (IC50) is 73.6 nM.

In the case of `CC(CO)(CO)n1cc(C(=O)c2cncc(NC(=O)c3cccc(C(F)(F)F)c3)c2)c2cncnc21` [Example 264, N-(5-(7-(1,3-dihydroxy-2-methylpropan-2-yl)-7H-pyrrolo[2,3-d]pyrimidine-5-carbonyl)pyridin-3-yl)-3-(trifluoromethyl)benzamide], the IC50 came out at 84.8 nM. Under `CC(CO)(CO)n1cc(C(=O)c2cncc(NC(=O)c3ccc(C(F)(F)F)c(F)c3)c2)c2cncnc21` [Example 265, N-(5-(7-(1,3-dihydroxy-2-methylpropan-2-yl)-7H-pyrrolo[2,3-d]pyrimidine-5-carbonyl)pyridin-3-yl)-3-fluoro-4-(trifluoromethyl)benzamide] stands 69 nM; under `CC(C)n1cc(C(=O)c2cncc(NC(=O)Cc3cccc(CN4CCC4)c3)c2)c2cncnc21` [Example 266, 2-[3-(azetidin-1-ylmethyl)phenyl]-N-{5-[(7-isopropyl-7H-pyrrolo[2,3-d]pyrimidin-5-yl)carbonyl]pyridin-3-yl}acetamide formate salt], 2950 nM; under `CC(C)n1cc(C(=O)c2cncc(NC(=O)Cc3cccc(CN4CC(F)C4)c3)c2)c2cncnc21` [Example 267, 2-{3-[(3-fluoroazetidin-1-yl)methyl]phenyl}-N-{5-[(7-isopropyl-7H-pyrrolo[2,3-d]pyrimidin-5-yl)carbonyl]pyridin-3-yl}acetamide], 2120 nM.

`CC(C)n1cc(C(=O)c2cncc(NC(=O)Cc3cccc(CN4CCOCC4)c3)c2)c2cncnc21` [Example 268, N-{5-[(7-isopropyl-7H-pyrrolo[2,3-d]pyrimidin-5-yl)carbonyl]pyridin-3-yl}-2-[3-(morpholin-4-ylmethyl)phenyl]acetamide formate salt]: the IC50 came to 579 nM.

Turning to `O=C(Nc1cncc(C(=O)c2cn(C(CO)CO)c3ncncc23)c1)c1cccc(C(F)(F)F)c1` [Example 269, N-(5-(7-(1,3-dihydroxypropan-2-yl)-7H-pyrrolo[2,3-d]pyrimidine-5-carbonyl)pyridin-3-yl)-3-(trifluoromethyl)benzamide], the IC50 stood at 557 nM.

On to `O=C(Cc1ccc(Cl)cc1)Nc1cncc(C(=O)c2cn(C(CO)CO)c3ncncc23)c1` [Example 270, 2-(4-chlorophenyl)-N-(5-(7-(1,3-dihydroxypropan-2-yl)-7H-pyrrolo[2,3-d]pyrimidine-5-carbonyl)pyridin-3-yl)acetamide], for which the IC50 amounted to 343 nM. As for `O=C(Nc1cncc(C(=O)c2cn(C(CO)CO)c3ncncc23)c1)c1cccc(OC(F)(F)F)c1` [Example 271, N-(5-(7-(1,3-dihydroxypropan-2-yl)-7H-pyrrolo[2,3-d]pyrimidine-5-carbonyl)pyridin-3-yl)-3-(trifluoromethoxy)benzamide], the figure is 39 nM. Under `O=C(Cc1ccc2cccnc2c1)Nc1cncc(C(=O)c2cn(C(CO)CO)c3ncncc23)c1` [Example 272, N-(5-(7-(1,3-dihydroxypropan-2-yl)-7H-pyrrolo[2,3-d]pyrimidine-5-carbonyl)pyridin-3-yl)-2-(quinolin-7-yl)acetamide] stands 697 nM.

As to `O=C(Cc1ccc(C(F)(F)F)cc1)Nc1cncc(C(=O)c2cn(C(CO)CO)c3ncncc23)c1` [Example 273, N-(5-(7-(1,3-dihydroxypropan-2-yl)-7H-pyrrolo[2,3-d]pyrimidine-5-carbonyl)pyridin-3-yl)-2-(4-(trifluoromethyl)phenyl)acetamide], the half-inhibitory concentration (IC50) was determined as 342 nM. Under `O=C(Cc1cccc(C(F)(F)F)c1)Nc1cncc(C(=O)c2cn(C(CO)CO)c3ncncc23)c1` [Example 274, N-(5-(7-(1,3-dihydroxypropan-2-yl)-7H-pyrrolo[2,3-d]pyrimidine-5-carbonyl)pyridin-3-yl)-2-(3-(trifluoromethyl)phenyl)acetamide] stands 38.6 nM.

As for `Cc1ccc2ccc(CC(=O)Nc3cncc(C(=O)c4cn(C(CO)CO)c5ncncc45)c3)cc2n1` [Example 275, N-[5-({7-[2-hydroxy-1-(hydroxymethyl)ethyl]-7H-pyrrolo[2,3-d]pyrimidin-5-yl}carbonyl)pyridin-3-yl]-2-(2-methylquinolin-7-yl)acetamide], the IC50 was 5100 nM. Under `O=C(Cc1ccc(Cl)c(Cl)c1)Nc1cncc(C(=O)c2cn(C(CO)CO)c3ncncc23)c1` [Example 276, 2-(3,4-dichlorophenyl)-N-[5-({7-[2-hydroxy-1-(hydroxymethyl)ethyl]-7H-pyrrolo[2,3-d]pyrimidin-5-yl}carbonyl)pyridin-3-yl]acetamide] stands 295 nM.

As to `O=C(Cc1ccc(C(F)(F)F)c(F)c1)Nc1cncc(C(=O)c2cn(C(CO)CO)c3ncncc23)c1` [Example 277, 2-[3-fluoro-4-(trifluoromethyl)phenyl]-N-[5-({7-[2-hydroxy-1-(hydroxymethyl)ethyl]-7H-pyrrolo[2,3-d]pyrimidin-5-yl}carbonyl)pyridin-3-yl]acetamide], the IC50 worked out at 434 nM. Under `O=C(Cc1ccc(Cl)cc1Cl)Nc1cncc(C(=O)c2cn(C(CO)CO)c3ncncc23)c1` [Example 278, 2-(2,4-dichlorophenyl)-N-[5-({7-[2-hydroxy-1-(hydroxymethyl)ethyl]-7H-pyrrolo[2,3-d]pyrimidin-5-yl}carbonyl)pyridin-3-yl]acetamide] stands 54.3 nM; under `O=C(Cc1cccc(OC(F)(F)F)c1)Nc1cncc(C(=O)c2cn(C(CO)CO)c3ncncc23)c1` [Example 279, N-[5-({7-[2-hydroxy-1-(hydroxymethyl)ethyl]-7H-pyrrolo[2,3-d]pyrimidin-5-yl}carbonyl)pyridin-3-yl]-2-[3-(trifluoromethoxy)phenyl]acetamide], 439 nM.

Regarding `O=C(Cc1ccc(OC(F)(F)F)cc1)Nc1cncc(C(=O)c2cn(C(CO)CO)c3ncncc23)c1` [Example 280, N-[5-({7-[2-hydroxy-1-(hydroxymethyl)ethyl]-7H-pyrrolo[2,3-d]pyrimidin-5-yl}carbonyl)pyridin-3-yl]-2-[4-(trifluoromethoxy)phenyl]acetamide], the concentration for half-maximal inhibition (IC50) turned out to be 498 nM. Take `O=C(Nc1cncc(C(=O)c2cn(C(CO)CO)c3ncncc23)c1)c1cc(F)cc(C(F)(F)F)c1` [Example 281, 3-fluoro-N-[5-({7-[2-hydroxy-1-(hydroxymethyl)ethyl]-7H-pyrrolo[2,3-d]pyrimidin-5-yl}carbonyl)pyridin-3-yl]-5-(trifluoromethyl)benzamide]: the IC50 came to 161 nM. Under `O=C(Cc1ccc(Cl)cn1)Nc1cncc(C(=O)c2cn(C(CO)CO)c3ncncc23)c1` [Example 282, 2-(5-chloropyridin-2-yl)-N-[5-({7-[2-hydroxy-1-(hydroxymethyl)ethyl]-7H-pyrrolo[2,3-d]pyrimidin-5-yl}carbonyl)pyridin-3-yl]acetamide] stands 1010 nM; under `O=C(Cn1ccc(C(F)(F)F)n1)Nc1cncc(C(=O)c2cn(C(CO)CO)c3ncncc23)c1` [Example 283, N-[5-({7-[2-hydroxy-1-(hydroxymethyl)ethyl]-7H-pyrrolo[2,3-d]pyrimidin-5-yl}carbonyl)pyridin-3-yl]-2-[3-(trifluoromethyl)-1H-pyrazol-1-yl]acetamide], 297 nM; under `CC(C)n1cc(C(=O)c2cncc(NC(=O)[C@@H](Cc3ccc(C(=O)c4ccccc4)cc3)NC(=O)OC(C)(C)C)c2)c2cncnc21` [Example 284, 4-benzoyl-N-alpha-(tert-butoxycarbonyl)-N-{5-[(7-isopropyl-7H-pyrrolo[2,3-d]pyrimidin-5-yl)carbonyl]pyridin-3-yl}-L-phenylalaninamide], 2020 nM.

Consider `CC(C)n1cc(C(=O)c2cncc(NC(=O)[C@H](N)Cc3ccc(C(=O)c4ccccc4)cc3)c2)c2cncnc21` [Example 285, 4-benzoyl-N-{5-[(7-isopropyl-7H-pyrrolo[2,3-d]pyrimidin-5-yl)carbonyl]pyridin-3-yl}-D-phenylalaninamide], for which the half-inhibitory concentration (IC50) came to 7820 nM. As for `CC(C)n1cc(C(=O)c2cncc(NC(=O)[C@@H](N)Cc3ccc(C(=O)c4ccccc4)cc3)c2)c2cncnc21` [Example 287, 4-benzoyl-N-{5-[(7-isopropyl-7H-pyrrolo[2,3-d]pyrimidin-5-yl)carbonyl]pyridin-3-yl}-L-phenylalaninamide], the figure is 4350 nM; as for `CC(C)n1cc(C(=O)c2cncc(NC(=O)Cc3cccc(C(=O)c4ccccc4)c3)c2)c2cncnc21` [Example 288, 2-(3-benzoylphenyl)-N-(5-(7-isopropyl-7H-pyrrolo[2,3-d]pyrimidine-5-carbonyl)pyridin-3-yl)acetamide], 43.1 nM; as for `CC(C)n1cc(C(=O)c2cncc(NC(=O)Cc3ccc(C(=O)c4ccccc4)cc3)c2)c2cncnc21` [Example 289, 2-(4-benzoylphenyl)-N-(5-(7-isopropyl-7H-pyrrolo[2,3-d]pyrimidine-5-carbonyl)pyridin-3-yl)acetamide], 1370 nM. As for `CC(C)n1cc(C(=O)c2cncc(NC(=O)c3cccc(C4(C(F)(F)F)N=N4)c3)c2)c2cncnc21` [Example 290, N-{5-[(7-isopropyl-7H-pyrrolo[2,3-d]pyrimidin-5-yl)carbonyl]pyridin-3-yl}-3-[3-(trifluoromethyl)-3H-diaziren-3-yl]benzamide], the IC50 turned out to be 167 nM. As for `CC(C)n1cc(C(=O)c2cncc(NC(=O)c3ccc(C4(C(F)(F)F)N=N4)cc3)c2)c2cncnc21` [Example 291, N-{5-[(7-isopropyl-7H-pyrrolo[2,3-d]pyrimidin-5-yl)carbonyl]pyridin-3-yl}-4-[3-(trifluoromethyl)-3H-diaziren-3-yl]benzamide], the figure is 3230 nM; as for `CC(C)n1cc(C(=O)c2cncc(NC(=O)c3cccc(C(=O)C(F)(F)F)c3)c2)c2cncnc21` [Example 292, N-{5-[(7-isopropyl-7H-pyrrolo[2,3-d]pyrimidin-5-yl)carbonyl]pyridin-3-yl}-3-(trifluoroacetyl)benzamide], 37.7 nM.

`Cn1cc(C(=O)c2cncc(NC(=O)Nc3ccc(Cl)cc3)c2)c2cncnc21` [Example 293, 1-(4-chlorophenyl)-3-{5-[(7-methyl-7H-pyrrolo[2,3-d]pyrimidin-5-yl)carbonyl]pyridin-3-yl}urea]: the IC50 was 20.2 nM.
